Experimental findings from patent US20070021434A1, “NON-NUCLEOSIDE ANTI-HEPACIVIRUS AGENTS AND USES THEREOF” (Migenix Inc., priority 2005, published 2007) are described below.

Where two headings read alike, the source gives them in different places.

The target in assay [1] is HCV RdRp (NS5B) (UniProt P26663). The format is biochemical, hepatitis C virus.
Assay [2] has as its system Huh-7 cells, genotype 1b HCV replicon. Put plainly: Inhibition of HCV replication in cell culture, genotype 1b replicon. The following applies: for EC50: Huh-7, genotype 1b replicon, intracellular HCV RNA 24 h after 3 daily doses; for Selectivity Index (CC50/EC50): genotype 1b replicon, CC50 by neutral red uptake. The format is cell-based, hepatitis C virus. As to the method: Test compounds were solubilized at 30 mM in 100% tissue culture grade DMSO (Sigma, Inc.). Aliquots of test compounds sufficient for one daily treatment were made in individual tubes and all material was stored at −20° C. On each day of treatment, daily aliquots of the test compounds were suspended in culture medium at room temperature and immediately added to the cell cultures. Compounds were added to dividing cultures once daily for three days at concentrations ranging from about 30 μM to about 0.0003 μM. Media was changed with each addition of compound. The assays were started when cell cultures were at about 30-50% confluence, and the cells reached confluence during the last day of treatment. The assays included untreated control cultures (six total), and triplicate cultures treated with α-interferon and ribavirin as positive antiviral and toxicity controls.
Intracellular HCV RNA levels and cytotoxicity were assessed in triplicate 24 hours after the last compound dose.

The mark [3] stands for this setting: Hepatitis C virus, Huh-7, 24 h, read-out: EC50.

Chain of HCV RdRp (NS5B) (P26663 whole entry, looked up): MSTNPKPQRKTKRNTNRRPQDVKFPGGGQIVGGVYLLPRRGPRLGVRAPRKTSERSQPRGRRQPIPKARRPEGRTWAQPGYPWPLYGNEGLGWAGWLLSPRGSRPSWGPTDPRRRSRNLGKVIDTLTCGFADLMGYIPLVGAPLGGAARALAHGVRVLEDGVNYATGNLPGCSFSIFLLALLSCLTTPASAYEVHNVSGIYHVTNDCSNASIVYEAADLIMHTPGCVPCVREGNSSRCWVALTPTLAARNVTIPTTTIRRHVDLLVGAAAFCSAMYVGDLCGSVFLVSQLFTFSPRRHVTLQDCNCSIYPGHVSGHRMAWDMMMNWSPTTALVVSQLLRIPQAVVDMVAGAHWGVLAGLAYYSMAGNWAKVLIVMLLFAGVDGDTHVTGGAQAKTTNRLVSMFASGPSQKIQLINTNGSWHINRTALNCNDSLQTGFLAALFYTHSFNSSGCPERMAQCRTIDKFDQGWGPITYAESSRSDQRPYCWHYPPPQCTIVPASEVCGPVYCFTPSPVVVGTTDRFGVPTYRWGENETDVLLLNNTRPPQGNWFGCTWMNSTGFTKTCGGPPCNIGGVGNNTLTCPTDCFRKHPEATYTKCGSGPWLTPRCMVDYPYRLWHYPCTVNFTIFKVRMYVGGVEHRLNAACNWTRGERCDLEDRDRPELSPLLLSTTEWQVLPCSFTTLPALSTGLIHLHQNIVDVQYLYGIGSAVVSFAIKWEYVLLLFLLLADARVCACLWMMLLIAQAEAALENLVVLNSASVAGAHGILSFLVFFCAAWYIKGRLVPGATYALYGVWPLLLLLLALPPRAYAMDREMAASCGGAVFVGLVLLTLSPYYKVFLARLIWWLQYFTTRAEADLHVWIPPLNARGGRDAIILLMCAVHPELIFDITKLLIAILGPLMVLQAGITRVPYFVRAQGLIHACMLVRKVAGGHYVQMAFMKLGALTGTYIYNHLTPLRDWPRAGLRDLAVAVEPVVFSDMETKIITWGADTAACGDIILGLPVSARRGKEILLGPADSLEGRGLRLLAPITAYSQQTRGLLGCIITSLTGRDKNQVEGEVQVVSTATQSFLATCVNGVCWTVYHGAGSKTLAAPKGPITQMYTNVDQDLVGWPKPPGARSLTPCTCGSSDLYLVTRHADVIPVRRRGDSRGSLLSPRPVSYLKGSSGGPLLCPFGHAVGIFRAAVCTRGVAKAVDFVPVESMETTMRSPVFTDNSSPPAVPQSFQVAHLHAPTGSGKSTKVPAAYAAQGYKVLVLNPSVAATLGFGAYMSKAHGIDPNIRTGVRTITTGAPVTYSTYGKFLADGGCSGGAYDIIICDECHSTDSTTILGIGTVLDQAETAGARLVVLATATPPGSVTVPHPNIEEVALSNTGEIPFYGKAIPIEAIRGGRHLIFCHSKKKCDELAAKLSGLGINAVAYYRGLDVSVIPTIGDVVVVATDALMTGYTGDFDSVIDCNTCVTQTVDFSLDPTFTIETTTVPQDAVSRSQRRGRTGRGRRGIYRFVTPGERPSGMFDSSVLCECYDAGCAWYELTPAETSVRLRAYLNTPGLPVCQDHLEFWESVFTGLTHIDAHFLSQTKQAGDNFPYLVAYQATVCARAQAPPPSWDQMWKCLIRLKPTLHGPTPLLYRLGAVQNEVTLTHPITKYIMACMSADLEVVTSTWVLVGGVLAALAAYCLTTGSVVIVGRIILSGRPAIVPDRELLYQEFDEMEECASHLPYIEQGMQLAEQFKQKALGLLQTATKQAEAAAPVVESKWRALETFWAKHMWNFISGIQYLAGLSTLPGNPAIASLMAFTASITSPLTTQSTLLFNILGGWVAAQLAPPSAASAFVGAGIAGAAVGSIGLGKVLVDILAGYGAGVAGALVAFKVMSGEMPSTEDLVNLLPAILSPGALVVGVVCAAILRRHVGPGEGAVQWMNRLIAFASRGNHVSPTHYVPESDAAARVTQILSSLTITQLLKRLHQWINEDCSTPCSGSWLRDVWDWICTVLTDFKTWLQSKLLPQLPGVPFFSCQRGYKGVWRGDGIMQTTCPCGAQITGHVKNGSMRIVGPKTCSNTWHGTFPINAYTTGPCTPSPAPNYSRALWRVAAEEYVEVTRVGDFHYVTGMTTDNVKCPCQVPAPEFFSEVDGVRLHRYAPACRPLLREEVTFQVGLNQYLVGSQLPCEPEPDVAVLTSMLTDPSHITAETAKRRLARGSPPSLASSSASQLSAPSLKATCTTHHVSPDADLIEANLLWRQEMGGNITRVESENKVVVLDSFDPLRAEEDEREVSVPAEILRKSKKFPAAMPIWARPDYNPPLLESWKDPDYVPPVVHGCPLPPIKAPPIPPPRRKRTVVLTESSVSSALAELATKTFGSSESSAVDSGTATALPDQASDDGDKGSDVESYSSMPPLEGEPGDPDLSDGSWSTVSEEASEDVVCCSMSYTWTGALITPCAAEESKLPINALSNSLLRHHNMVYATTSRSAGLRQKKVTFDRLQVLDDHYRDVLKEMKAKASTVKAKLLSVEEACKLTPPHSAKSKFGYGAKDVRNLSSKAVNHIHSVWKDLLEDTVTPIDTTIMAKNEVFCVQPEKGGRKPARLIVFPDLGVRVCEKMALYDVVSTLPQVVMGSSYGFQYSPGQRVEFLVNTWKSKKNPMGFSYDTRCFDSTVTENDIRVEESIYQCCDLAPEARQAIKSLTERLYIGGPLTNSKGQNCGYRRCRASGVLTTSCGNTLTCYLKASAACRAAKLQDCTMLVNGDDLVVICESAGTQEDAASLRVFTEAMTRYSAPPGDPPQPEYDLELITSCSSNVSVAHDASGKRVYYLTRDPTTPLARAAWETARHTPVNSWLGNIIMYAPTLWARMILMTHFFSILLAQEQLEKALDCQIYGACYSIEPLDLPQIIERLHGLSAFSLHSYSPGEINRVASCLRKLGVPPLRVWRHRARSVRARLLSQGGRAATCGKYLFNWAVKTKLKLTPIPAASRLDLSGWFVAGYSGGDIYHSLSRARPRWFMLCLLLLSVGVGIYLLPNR

For `NCCCC[C@@H](NC(=O)Nc1ccc2c(c1)Cc1ccccc1-2)C(=O)Nc1ccc(C2CCCCC2)cc1` [Compound 137, (R)-6-AMINO-2-[3-(9H-FLUOREN-2-YL)-UREIDO]-HEXANOIC ACID (4-CYCLOHEXYL-PHENYL)-AMIDE], the half-inhibitory concentration (IC50) in assay [1] is below 10 µM. Further, in assay [2] (setting [3]), the EC50 was below 0.5 µM. In addition, the “Selectivity Index (CC50/EC50)” value in assay [2] was in the range of 20 to 100.
In turn, `Cc1ccc(NC(=O)[C@@H](CCCCN)NC(=O)Nc2ccc3c(c2)Cc2ccccc2-3)cc1` [Compound 173, (R)-6-AMINO-2-[3-(9H-FLUOREN-2-YL)-UREIDO]-HEXANOIC ACID P-TOLYLAMIDE] yielded an IC50 in assay [1] below 10 µM. In assay [2], the EC50 lay within 2 to 0.5 μM and the “Selectivity Index (CC50/EC50)” value is below 20.
Compound `Cc1ccc(NC(=O)C(Cc2ccc(CN)cc2)NC(=O)Nc2ccc(OCc3ccccc3)cc2)cc1` [Compound 146, (S)-3-(4-AMINOMETHYL-PHENYL)-2-[3-(4-BENZYLOXY-PHENYL)-UREIDO]-N-P-TOLYL-PROPIONAMIDE] returned an IC50 in assay [1] below 10 µM. Further, the EC50 in assay [2] (setting [3]) was below 0.5 µM. The “Selectivity Index (CC50/EC50)” value in assay [2] is on record as 20 to 100.
On to `NCCCC[C@H](NC(=O)Nc1ccc(-c2ccccc2)cc1)C(=O)Nc1ccc(CN(C(=O)c2ccco2)C2CCCCC2)cc1` [Compound 26, (S)-FURAN-2-CARBOXYLIC ACID {4-[6-AMINO-2-(3-BIPHENYL-4-YL-UREIDO)-HEXANOYLAMINO]-BENZYL}-CYCLOHEXYL-AMIDE], for which, in assay [1], the IC50 was below 10 µM. In assay [2] (setting [3]), the EC50 is above 2 µM. Besides, the “Selectivity Index (CC50/EC50)” value in assay [2] is on record as below 20.
Compound `NCCCC[C@H](NC(=O)Nc1ccc(OCc2ccccc2)cc1)C(=O)Nc1ccc(C2CCCCC2)cc1` [Compound 117, (S)-6-AMINO-2-[3-(4-BENZYLOXY-PHENYL)-UREIDO]-HEXANOIC ACID (4-CYCLOHEXYL-PHENYL)-AMIDE] came in with an IC50 in assay [1] below 10 µM. In addition, in assay [2] (setting [3]), the EC50 is above 2 µM. In assay [2], the “Selectivity Index (CC50/EC50)” value is below 20.
Take `Cc1cc2cc(NC(=O)[C@H](CCNC(=O)CN)NC(=O)OCC3c4ccccc4-c4ccccc43)ccc2[nH]1` [Compound 237, (S)-[3-(2-AMINO-ACETYLAMINO)-1-(2-METHYL-1H-INDOL-5-YLCARBAMOYL)-PROPYL]-CARBAMIC ACID 9H-FLUOREN-9-YLMETHYL ESTER]: the IC50 in assay [1] is below 10 µM. The EC50 in assay [2] (setting [3]) was above 2 µM. The “Selectivity Index (CC50/EC50)” value in assay [2] is given as below 20.
Take `NCCCCC[C@H](NC(=O)Nc1ccc(OCc2ccccc2)cc1)C(=O)Nc1ccc(C2CCCCC2)cc1` [Compound 121, (S)-7-AMINO-2-[3-(4-BENZYLOXY-PHENYL)-UREIDO]-HEPTANOIC ACID (4-CYCLOHEXYL-PHENYL)-AMIDE]: the concentration for half-maximal inhibition (IC50) in assay [1] was below 10 µM. In addition, in assay [2] (setting [3]), the EC50 was below 0.5 µM. The “Selectivity Index (CC50/EC50)” value in assay [2] is listed as below 20.
As for `Cc1ccc(NC(=O)C(Cc2ccc(CN)cc2)NC(=O)Nc2ccc(-c3ccccc3)cc2)cc1` [Compound 145, (S)-3-(4-AMINOMETHYL-PHENYL)-2-(3-BIPHENYL-4-YL-UREIDO)-N-P-TOLYL-PROPIONAMIDE], the half-maximal inhibitory concentration (IC50) in assay [1] was below 10 µM. For the same compound, the EC50 in assay [2] (setting [3]) is above 2 µM. Besides, in assay [2], the “Selectivity Index (CC50/EC50)” value is on record as below 20.
For the compound `NCCCC[C@H](NC(=O)OCC1c2ccccc2-c2ccccc21)C(=O)Nc1ccc(CN)cc1` [Compound 228, (S)-[5-AMINO-1-(4-AMINOMETHYL-PHENYLCARBAMOYL)-PENTYL]-CARBAMIC ACID 9H-FLUOREN-9-YLMETHYL ESTER], the IC50 in assay [1] is below 10 µM. In assay [2] (Hepatitis C virus, Huh-7, 24 h), this compound showed an EC50 of 0.5 µM. Also, the “Selectivity Index (CC50/EC50)” value in assay [2] lay in the range of 20 to 100.
The compound `Cc1ccc(NC(=O)C(CCCCN)NC(=O)Nc2cccc(-c3ccccc3)c2)cc1` [Compound 127, (S)-6-AMINO-2-(3-BIPHENYL-3-YL-UREIDO)-HEXANOIC ACID P-TOLYLAMIDE] returned an IC50 in assay [1] of 10 to 50 µM. In addition, the EC50 in assay [2] (setting [3]) is above 2 µM. The “Selectivity Index (CC50/EC50)” value in assay [2] is on record as below 20.
Turning to `CC1CCC(NC(=O)[C@H](CNC(=O)CN)NC(=O)Nc2ccc(OCc3ccccc3)cc2)CC1` (stereo partly drawn) [Compound 306, (S)-3-(2-AMINO-ACETYLAMINO)-2-[3-(4-BENZYLOXY-PHENYL)-UREIDO]-N-(4-METHYL-CYCLOHEXYL)-PROPIONAMIDE], the IC50 in assay [1] lay within 10 to 50 µM. Further, the EC50 in assay [2] (setting [3]) was above 2 µM. In addition, the “Selectivity Index (CC50/EC50)” value in assay [2] is reported as below 20.
The compound `Cc1ccc(NC(=O)C(CCCCN)NC(=O)Nc2ccc(-c3nc4ccc(C)cc4s3)cc2)cc1` [Compound 214, (S)-6-AMINO-2-{3-[4-(6-METHYL-BENZOTHIAZOL-2-YL)-PHENYL]-UREIDO}-HEXANOIC ACID P-TOLYLAMIDE] displayed a concentration for half-maximal inhibition (IC50) in assay [1] below 10 µM. Further, the EC50 in assay [2] (setting [3]) was above 2 µM. Besides, the “Selectivity Index (CC50/EC50)” value in assay [2] is below 20.
Take `Cc1cc2cc(NC(=O)[C@H](CCCCN)NC(=O)Nc3ccc4c(c3)Cc3ccccc3-4)ccc2[nH]1` [Compound 207, (S)-6-AMINO-2-[3-(9H-FLUOREN-2-YL)-UREIDO]-HEXANOIC ACID (2-METHYL-1H-INDOL-5-YL)-AMIDE]: the IC50 in assay [1] is below 10 µM. Further, the EC50 in assay [2] (setting [3]) was above 2 µM. For the same compound, the “Selectivity Index (CC50/EC50)” value in assay [2] is below 20.
Consider `COC(=O)c1ccc(COc2ccc(NC(=O)NC(CCCCN)C(=O)Nc3ccc(C)cc3)cc2)cc1` [Compound 199, (S)-4-{4-13-(5-AMINO-1-P-TOLYLCARBAMOYL-PENTYL)-UREIDO]-PHENOXYMETHYL}-BENZOIC ACID METHYL ESTER], for which, in assay [1], the IC50 lay in the range of 10 to 50 µM. In assay [2] (setting [3]), the EC50 was in the range of 0.5 to 2 µM. Moreover, the “Selectivity Index (CC50/EC50)” value in assay [2] lay within 20 to 100.
`NCCCCN(CC(=O)Nc1ccc(C2CCCCC2)cc1)C(=O)Nc1ccc(C=Cc2ccccc2)cc1` [Compound 324, 2-[1-(4-AMINO-BUTYL)-3-(4-STYRYL-PHENYL)-UREIDO]-N-(4-CYCLOHEXYL-PHENYL)-ACETAMIDE] came in with a concentration for half-maximal inhibition (IC50) in assay [1] of 10 to 50 µM. Moreover, the EC50 in assay [2] (setting [3]) is above 2 µM. The “Selectivity Index (CC50/EC50)” value in assay [2] is below 20.
In the case of `Cc1ccc(NC(=O)[C@H](CCCCN)NC(=O)CNc2ccccc2Oc2ccccc2)cc1` [Compound 366, (S)-6-AMINO-2-[2-(2-PHENOXY-PHENYLAMINO)-ACETYLAMINO]-HEXANOIC ACID P-TOLYLAMIDE], the IC50 in assay [1] was below 10 µM. In addition, the concentration for a half-maximal effect (EC50) in assay [2] (setting [3]) was above 2 µM. Also, the “Selectivity Index (CC50/EC50)” value in assay [2] is on record as below 20.
The compound `Cc1ccc(NC(=O)C(CCCC[N+](C)(C)C)NC(=O)OCC2c3ccccc3-c3ccccc32)cc1` (stereo not shown) [Compound 110] yielded a concentration for half-maximal inhibition (IC50) in assay [1] above 50 µM.
Take `Cc1ccc(NC(=O)C(Cc2c[nH]c3ccccc23)NC(=O)OCC2c3ccccc3-c3ccccc32)cc1` [Compound 378, (S)-[2-(1H-INDOL-3-YL)-1-P-TOLYLCARBAMOYL-ETHYL]-CARBAMIC ACID 9H-FLUOREN-9-YLMETHYL ESTER]: in assay [1], the IC50 was above 50 µM.
In the case of `Cc1ccc(NC(=O)CC2CN(C(=O)CN)CCN2C(=O)OCC2c3ccccc3-c3ccccc32)cc1` (racemic) [Compound 182, (+/−)-4-(2-AMINO-ACETYL)-2-(P-TOLYLCARBAMOYL-METHYL)-PIPERAZINE-1-CARBOXYLIC ACID 9H-FLUOREN-9-YLMETHYL ESTER], the concentration for half-maximal inhibition (IC50) in assay [1] was above 50 µM.
Regarding `N[C@@H](Cc1c[nH]c2ccccc12)C(=O)NCCCC[C@H](NC(=O)OCC1c2ccccc2-c2ccccc21)C(=O)Nc1ccc(CN(C(=O)c2ccco2)C2CCCCC2)cc1` [Compound 35, (S)-[5-[2-(S)-AMINO-3-(1H-INDOL-3-YL)-PROPIONYLAMINO]-1-(4-{[CYCLOHEXYL-(FURAN-2-CARBONYL)-AMINO]-METHYL}-PHENYLCARBAMOYL)-PENTYL]-CARBAMIC ACID 9H-FLUOREN-9-YLMETHYL ESTER], the IC50 in assay [1] is below 10 µM.
In the case of `O=CNCCCC[C@H](NC(=O)OCC1c2ccccc2-c2ccccc21)C(=O)Nc1ccc(Cl)c(Cl)c1` [Compound 217, (S)-[1-(3,4-DICHLORO-PHENYLCARBAMOYL)-5-FORMYLAMINO-PENTYL]-CARBAMIC ACID 9H-FLUOREN-9-YLMETHYL ESTER], the IC50 in assay [1] lay in the range of 10 to 50 µM.
The same measure, in the same setting: for `Cc1cc(NC(=O)[C@H](CCCCN)NC(=O)Nc2ccc(OCc3ccccc3)cc2)n(-c2ccccc2)n1` [Compound 316, (S)-6-AMINO-2-[3-(4-BENZYLOXY-PHENYL)-UREIDO]-HEXANOIC ACID (5-METHYL-2-PHENYL-2H-PYRAZOL-3-YL)-AMIDE] the value was 10 to 50 µM; for `Cc1ccc(NC(=O)C(CCCCN)NS(=O)(=O)c2ccc(S(=O)(=O)c3ccccc3)s2)cc1` [Compound 389, (S)-6-AMINO-2-(5-BENZENESULFONYL-THIOPHENE-2-SULFONYLAMINO)-HEXANOIC ACID P-TOLYLAMIDE], above 50 µM.
Same read-out and setting: as for `CCCC[C@H](NC(=O)OCC1c2ccccc2-c2ccccc21)C(=O)Nc1ccc(CN(C(=O)c2ccco2)C2CCCCC2)cc1` [Compound 37, (S)-[1-(4-{[CYCLOHEXYL-(FURAN-2-CARBONYL)-AMINO]-METHYL}-PHENYLCARBAMOYL)-PENTYL]-CARBAMIC ACID 9H-FLUOREN-9-YLMETHYL ESTER], the figure is above 50 µM.
Turning to `Cc1ccc(NC(=O)C(CN)NC(=O)OCC2c3ccccc3-c3ccccc32)cc1` [Compound 103, (S)-(2-AMINO-1-P-TOLYLCARBAMOYL-ETHYL)-CARBAMIC ACID 9H-FLUOREN-9-YLMETHYL ESTER], the IC50 in assay [1] is above 50 µM.
In assay [1], `Cc1ccc(NC(=O)[C@H](CCCCN)NC(=O)Nc2ccc(OCc3cccnc3)cc2)cc1` [Compound 261, (S)-6-AMINO-2-{3-[4-(PYRIDIN-3-YLMETHOXY)-PHENYL]-UREIDO}-HEXANOIC ACID P-TOLYLAMIDE] came in with an IC50 above 50 µM.
